Reference: the NIST ThermoML archive (doi:10.1021/je300153f)

Details: for mass density / electrical conductivity / viscosity: 101.33 kPa; for mass density / electrical conductivity / surface tension liquid-gas / viscosity: Liquid; for electrical conductivity: MP522 conductivity meter; for surface tension liquid-gas: Maximal bubble pressure; for viscosity: Capillary tube (Ostwald / Ubbelohde) method

CCCC[n+]1cccc(C)c1.O=S(=O)([N-]S(=O)(=O)C(F)(F)F)C(F)(F)F
Details | electrical conductivity [S/m] | mass density [kg/m3] | surface tension liquid-gas [mN/m] | viscosity [mPa·s]
278.15 K | 0.1 | 1439.9 | – | –
283.15 K | 0.132 | 1435.7 | 29.2 | –
288.15 K | 0.172 | 1431.5 | 28.8 | –
293.15 K | 0.217 | 1427.1 | 28.4 | –
298.15 K | 0.272 | 1422.6 | 28.2 | 63.2
303.15 K | 0.335 | 1418.3 | 27.8 | 51.1
308.15 K | 0.409 | 1414.2 | 27.4 | 41.4
313.15 K | 0.49 | 1409.8 | 27.2 | 34
318.15 K | 0.576 | 1405.1 | 26.7 | 28.4
323.15 K | 0.69 | 1400.7 | 26.4 | 23.9
328.15 K | 0.796 | 1396.4 | 26.1 | 20.3
333.15 K | 0.91 | 1392.1 | 25.8 | 17.5
338.15 K | 1.03 | 1387.6 | 25.4 | 15.2
343.15 K | 1.16 | – | – | 13
348.15 K | 1.3 | – | – | 11.3
353.15 K | 1.44 | – | – | 10

Details | Glass transition temperature [°C]
Glass, DTA | -82.3
